Here are results for 17 molecules from US20170247326A1, “Substituted Pyrrolidine Carboxamide Compounds” (EPIZYME, INC., priority 2014, published 2017).

The IC50 is the concentration that inhibits the measured activity by half.

Each structure is given as a SMILES string. Bounds are passed on as bounds.

In one assay the target is T1, SMYD2 (Homo sapiens, UniProt Q9NRG4).
T1 construct: Full length SMYD2 (NP_064582.2) was cloned; His6 (N, cleaved yes); FLAG (N); made in house; host or cells: Sf9 insect cells
T1 sequence (Q9NRG4 whole entry): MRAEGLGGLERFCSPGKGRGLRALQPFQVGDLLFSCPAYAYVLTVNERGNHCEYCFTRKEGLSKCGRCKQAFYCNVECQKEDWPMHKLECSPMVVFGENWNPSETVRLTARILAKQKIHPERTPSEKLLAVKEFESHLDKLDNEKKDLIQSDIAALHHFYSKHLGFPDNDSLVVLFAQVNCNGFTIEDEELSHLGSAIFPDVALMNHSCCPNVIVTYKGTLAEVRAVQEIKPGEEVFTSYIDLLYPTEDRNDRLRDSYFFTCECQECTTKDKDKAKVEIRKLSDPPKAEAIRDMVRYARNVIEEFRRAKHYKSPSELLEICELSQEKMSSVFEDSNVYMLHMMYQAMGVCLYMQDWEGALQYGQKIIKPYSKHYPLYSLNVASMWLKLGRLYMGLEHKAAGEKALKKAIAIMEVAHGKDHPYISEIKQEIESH
Briefly: SMYD2 biochemical assay (3H-SAM, biotinylated peptide substrate, Flashplate). As to conditions: Table 3; average of n = 1 to n = 50; read-out: SMYD2 Biochem IC50. In short, it runs like this:
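Full-length His/FLAG-tagged SMYD2 (tag removed, Sf9-expressed) at 1.5 nM was preincubated with compound for 30 min at room temperature in Bicine pH 7.6 buffer with 2% DMSO. Reaction used 10 nM 3H-SAM and 60 nM biotinylated peptide, stopped with 600 uM cold SAM. Streptavidin-captured 3H-peptide counted; IC50 from 3- or 4-parameter fit.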
In the case of `CC(C)N1C[C@H](C)[C@H](NC(=O)c2nsc(C3CC3)n2)C1` (racemic) [compound 88, (±)-cis-5-cyclopropyl-N-[4-methyl-1-(propan-2-yl)pyrrolidin-3-yl]-1,2,4-thiadiazole-3-carboxamide], the IC50 was above 50 µM.
Turning to `CC(C)N1C[C@@H](C)[C@@H](NC(=O)c2nc(C3CC3)ns2)C1` (racemic) [compound 86, (±)-cis-3-cyclopropyl-N-[4-methyl-1-(propan-2-yl)pyrrolidin-3-yl]-1,2,4-thiadiazole-5-carboxamide], the IC50 is above 50 µM.
Turning to `CC(C)N1C[C@H](C)[C@H](NC(=O)c2cc(C3CC3)cnn2)C1` (stereo in doubt) [compound 98, rel-5-cyclopropyl-N-[(3S,4S)-4-methyl-1-(propan-2-yl)pyrrolidin-3-yl]pyridazine-3-carboxamide], the IC50 was found to be 2.09 µM.
`CCc1cnnc(C(=O)N[C@@H]2CN(C(C)C)C[C@@H]2C)c1` (racemic) [compound 96, (±)-cis-5-ethyl-N-[4-methyl-1-(propan-2-yl)pyrrolidin-3-yl]pyridazine-3-carboxamide]: the half-inhibitory concentration (IC50) came out at 5.09 µM.
For the molecule `C[C@H]1CN(Cc2ccccc2)C[C@H]1NC(=O)c1cc(C2CC2)cnn1` (racemic) [compound 99, (±)-cis-N-(1-benzyl-4-methylpyrrolidin-3-yl)-5-cyclopropylpyridazine-3-carboxamide], the IC50 came to 0.574 µM.
Turning to `CC(C)N1CCC(C(=O)Nc2cc(O)c3c(c2)OCC(=O)N3)C1` (centres unmarked) [compound 87, N-(5-hydroxy-3-oxo-3,4-dihydro-2H-1,4-benzoxazin-7-yl)-1-(propan-2-yl)pyrrolidine-3-carboxamide], the IC50 was above 50 µM.
As to `CC(C)c1cnnc(C(=O)N[C@@H]2CN(C(C)C)C[C@@H]2C)c1` (racemic) [compound 118, (±)-cis-5-isopropyl-N-(1-isopropyl-4-methylpyrrolidin-3-yl)pyridazine-3-carboxamide], the IC50 came to 10.4 µM.
For the molecule `CC(C)N1C[C@H](C)[C@H](NC(=O)c2csnc2C2CC2)C1` (racemic) [compound 92, (±)-cis-3-cyclopropyl-N-[4-methyl-1-(propan-2-yl)pyrrolidin-3-yl]-1,2-thiazole-4-carboxamide], the IC50 was 19.6 µM.
Turning to `CC(C)N1C[C@H](C)[C@H](NC(=O)c2ccc(C3CC3)nn2)C1` (racemic) [compound 109, (±)-cis-6-cyclopropyl-N-[4-methyl-1-(propan-2-yl)pyrrolidin-3-yl]pyridazine-3-carboxamide], the IC50 was above 50 µM.
Turning to `CC(C)N1C[C@H](C)[C@H](NC(=O)c2ccc3c(c2)OCC(=O)N3)C1` (racemic) [compound 29, (±)-cis-N-[4-methyl-1-(propan-2-yl)pyrrolidin-3-yl]-3-oxo-3,4-dihydro-2H-1,4-benzoxazine-7-carboxamide], the IC50 was above 50 µM.
For the molecule `CC(C)N1C[C@@H](C)[C@H](NC(=O)c2cn(C(C)C)nn2)C1` (racemic) [compound 24, (±)-trans-N-[4-methyl-1-(propan-2-yl)pyrrolidin-3-yl]-1-(propan-2-yl)-1H-1,2,3-triazole-4-carboxamide], the IC50 was above 50 µM.
Take `CC(C)N1C[C@H](NC(=O)c2cnn(C(C)C)c2)[C@@H](C)C1` (racemic) [compound 47, (±)-trans-N-[4-methyl-1-(propan-2-yl)pyrrolidin-3-yl]-1-(propan-2-yl)-1H-pyrazole-4-carboxamide]: the IC50 was above 50 µM.
On to `CC(C)N1C[C@@H](C)[C@@H](NC(=O)c2cc(C3CC3)cnn2)C1` (stereo in doubt) [compound 110, (±)-cis-5-cyclopropyl-N-[4-methyl-1-(propan-2-yl)pyrrolidin-3-yl]pyridazine-3-carboxamide], for which the IC50 turned out to be 0.424 µM.
For `CC(C)c1coc(C(=O)N[C@@H]2CN(C(C)C)C[C@@H]2C)n1` (racemic) [compound 102, (±)-cis-N-[4-methyl-1-(propan-2-yl)pyrrolidin-3-yl]-4-(propan-2-yl)-1,3-oxazole-2-carboxamide], the IC50 was above 50 µM.
As for `CC(C)N1C[C@H](C)[C@H](NC(=O)c2nc(C3CC3)no2)C1` (racemic) [compound 81, (±)-cis-3-cyclopropyl-N-[4-methyl-1-(propan-2-yl)pyrrolidin-3-yl]-1,2,4-oxadiazole-5-carboxamide], the IC50 is above 50 µM.

The same assay, now with this note: Table 4; average of n = 1 to n = 50; read-out: SMYD2 Biochem IC50.
As for `CNCCS(=O)(=O)N1C[C@H](C)[C@H](NC(=O)c2cc(C3CC3)cnn2)C1` (racemic) [compound 128, rac-5-cyclopropyl-N-((3R,4R)-4-methyl-1-((2-(methylamino)ethyl)sulfonyl)pyrrolidin-3-yl)pyridazine-3-carboxamide], the IC50 is above 50 µM.

A further assay relates to esophageal, liver and breast cancer cell lines.
Experiment: not given
As to conditions: dose-dependent; Nguyen et al. J Biol Chem. 2015; cited from earlier work.
In the case of `Cc1cn(CCN2CCN(c3ccccc3-c3cc(C#N)cc(C(=O)NCCCN4CCCC4)c3)CC2)c2ccccc12` [LLY-507], the “proliferation of several esophageal, liver and breast cancer cell lines” value was “inhibited the proliferation”.
